Measurements: ChEMBL document CHEMBL1201862, “PubChem BioAssay data set” (2004)
Activity calls are given as the source filed them. Rule as the data show it, for most assays here: actives have a measured EC50 and inactives only a lower limit.

Tests used:
[1] = viability of uninfected HEp-2 cells – cell-based, HTS, cytotoxicity control for RSV inhibitor project, dose response (AID 2410); format: functional; conditions: human respiratory syncytial virus
[2] = luciferase reporter signal suppression in cells – H4 neuroglioma cells, luminescence, dose response (AID 1990); format: functional, cell-based
[3] = Luminescence Cell-Based Dose Response HTS to Identify Inhibitors of 5'UTR Stem-Loop Driven Prion Protein mRNA Translation in H4 Neuroglioblastoma Cells. [Related pubchem assays: 1827 (Project Summary), 1813 (Primary HTS)]; format: functional
[4] = alpha-synuclein stem-loop luciferase translation blockers – H4 neuroglioma cells, luminescence, confirmation (AID 1988); format: functional, cell-based
Streptokinase A = target: T1, Streptokinase A (Streptococcus pyogenes serotype M1, UniProt P10520); experiment: viability-normalized secreted streptokinase activity reduction – plasminogen activation absorbance, OD405, dose response (AID 1914); format: functional, Streptococcus pyogenes M1 GAS;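 also: secreted streptokinase activity via plasminogen activation per viability signal from cell pellet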
T1 sequence (P10520 whole entry): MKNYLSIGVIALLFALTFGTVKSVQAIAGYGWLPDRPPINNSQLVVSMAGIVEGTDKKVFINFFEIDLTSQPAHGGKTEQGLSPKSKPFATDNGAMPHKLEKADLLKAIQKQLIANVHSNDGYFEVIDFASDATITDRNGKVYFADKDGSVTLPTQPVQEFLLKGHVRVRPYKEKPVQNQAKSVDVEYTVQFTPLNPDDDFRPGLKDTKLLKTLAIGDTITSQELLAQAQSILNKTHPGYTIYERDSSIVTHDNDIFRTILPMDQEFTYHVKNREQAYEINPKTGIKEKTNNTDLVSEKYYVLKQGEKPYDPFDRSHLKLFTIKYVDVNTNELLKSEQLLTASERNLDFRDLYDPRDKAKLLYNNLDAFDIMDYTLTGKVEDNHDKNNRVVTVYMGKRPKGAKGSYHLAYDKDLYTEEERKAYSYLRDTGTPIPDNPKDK

[5] = test system: Streptococcus sp. 'group A'; experiment: Streptococcus pyogenes SK(-)GAS viability under kanamycin – luminescence, BacTiterGlo, confirmation, counter-screen for streptokinase expression inhibitor project, dose response (AID 1900); format: functional, organism-based
Streptococcus = experiment: GAS UMAA2166 growth inhibition – luminescence, BacTiterGlo, counter-screen for streptokinase expression inhibitor project, dose response (AID 1915); format: functional, organism-based;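 also: potency for reduction of bacterial viability or growth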
[6] = Luminescence Cell-Based Dose Response HTS to Identify Activators of Luciferase Translation or Activity in H4 […] Cells. [Related pubchem assays: 1829 (Project Summary), 1814 (Primary HTS)]; format: functional
H4 = experiment: Luminescence Cell-Based Dose Response HTS to Identify Activators of 5'UTR Stem-Loop Driven Prion Protein mRNA Translation in H4 Neuroglioblastoma Cells. [Related pubchem assays: 1829 (Project Summary), 1814 (Primary HTS)]; format: functional; conditions: Homo sapiens
Cytochrome P450 1A2 = target: T2, Cytochrome P450 1A2 (Homo sapiens, UniProt P05177);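 also: PubChem cytochrome P450 panel assay, CYP1A2 panel member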
T2 sequence (P05177 whole entry): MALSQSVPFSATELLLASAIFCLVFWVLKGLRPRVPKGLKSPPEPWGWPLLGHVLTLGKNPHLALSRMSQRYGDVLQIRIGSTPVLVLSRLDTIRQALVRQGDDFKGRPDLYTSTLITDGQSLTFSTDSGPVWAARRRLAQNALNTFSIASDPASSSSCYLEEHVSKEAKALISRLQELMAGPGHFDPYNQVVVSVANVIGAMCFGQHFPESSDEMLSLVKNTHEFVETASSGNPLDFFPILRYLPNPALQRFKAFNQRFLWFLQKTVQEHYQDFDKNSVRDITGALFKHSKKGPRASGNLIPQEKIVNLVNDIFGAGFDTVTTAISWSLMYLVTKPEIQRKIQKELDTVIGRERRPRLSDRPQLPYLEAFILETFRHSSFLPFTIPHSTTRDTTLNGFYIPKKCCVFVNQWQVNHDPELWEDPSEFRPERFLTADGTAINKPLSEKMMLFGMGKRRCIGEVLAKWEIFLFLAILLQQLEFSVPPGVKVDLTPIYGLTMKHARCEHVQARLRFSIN

Cytochrome P450 3A4 = Cytochrome P450 3A4 (Homo sapiens, UniProt P08684);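 also: CYP3A4 tested as one member of a cytochrome P450 panel screen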
[7] = Luminescence Cell-Based Dose Retest to Confirm Inhibitors of Cancer Stem Cells. [Related pubchem assays (depositor defined):AID2717, AID2721]; format: functional; conditions: Homo sapiens
[8] = Trypanosoma cruzi growth suppression in host cells – NIH3T3 host cells, beta-gal luminescence, confirmation (AID 2044); format: functional, cell-based;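 also: intracellular parasites grown in NIH/3T3 mouse fibroblasts as host cells; luminescent beta-galactosidase reporter signal from transgenic T. cruzi replicating inside host cells; inhibitors lower the luminescence signal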
[9] = NIH3T3 cell viability loss – ATP luminescence, mouse fibroblasts, counter-screen, dose response (AID 2010); format: functional, cell-based;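 also: cells exposed to compound for about 90 hours before reading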
[10] = target: T3, Corticotropin-releasing factor receptor 2/Corticotropin-releasing factor-binding protein (Homo sapiens, UniProt P24387+Q13324); experiment: activators of CRF receptor 2 with binding protein – uHTS hits, confirmation (AID 602473); format: functional; conditions: read-out: EC50_Mean
T3 sequence (Q13324 whole entry): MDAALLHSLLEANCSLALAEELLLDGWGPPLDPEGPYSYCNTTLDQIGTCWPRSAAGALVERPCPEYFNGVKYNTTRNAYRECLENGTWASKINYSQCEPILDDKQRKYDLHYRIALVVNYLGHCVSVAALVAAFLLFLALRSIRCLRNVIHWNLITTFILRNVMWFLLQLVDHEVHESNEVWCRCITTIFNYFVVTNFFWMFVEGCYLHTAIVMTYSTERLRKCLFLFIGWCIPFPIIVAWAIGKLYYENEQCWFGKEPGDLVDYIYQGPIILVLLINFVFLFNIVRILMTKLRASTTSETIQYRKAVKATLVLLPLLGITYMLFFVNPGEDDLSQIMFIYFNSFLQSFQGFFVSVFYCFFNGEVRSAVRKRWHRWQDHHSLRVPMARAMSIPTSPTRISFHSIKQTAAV
T3 sequence (P24387 whole entry): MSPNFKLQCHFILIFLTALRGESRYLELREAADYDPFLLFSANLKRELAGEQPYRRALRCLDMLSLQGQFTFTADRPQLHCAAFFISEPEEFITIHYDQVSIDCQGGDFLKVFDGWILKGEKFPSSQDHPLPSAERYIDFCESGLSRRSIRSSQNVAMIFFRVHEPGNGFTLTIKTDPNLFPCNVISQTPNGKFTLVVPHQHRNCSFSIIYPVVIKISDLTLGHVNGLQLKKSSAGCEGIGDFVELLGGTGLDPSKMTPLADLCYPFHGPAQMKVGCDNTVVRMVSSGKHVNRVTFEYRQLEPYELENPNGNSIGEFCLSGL

INS1 = experiment: INS-1E survival protection against cytokine death – cell-based, luminescence, retest, dose response (AID 449756); format: functional; conditions: Rattus norvegicus;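 also: cell death triggered by IL-1 beta plus TNF-alpha plus IFN-gamma mixture; protective hits raise ATP signal compared with cytokine alone wells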

Chain of Cytochrome P450 3A4 (P08684 whole entry): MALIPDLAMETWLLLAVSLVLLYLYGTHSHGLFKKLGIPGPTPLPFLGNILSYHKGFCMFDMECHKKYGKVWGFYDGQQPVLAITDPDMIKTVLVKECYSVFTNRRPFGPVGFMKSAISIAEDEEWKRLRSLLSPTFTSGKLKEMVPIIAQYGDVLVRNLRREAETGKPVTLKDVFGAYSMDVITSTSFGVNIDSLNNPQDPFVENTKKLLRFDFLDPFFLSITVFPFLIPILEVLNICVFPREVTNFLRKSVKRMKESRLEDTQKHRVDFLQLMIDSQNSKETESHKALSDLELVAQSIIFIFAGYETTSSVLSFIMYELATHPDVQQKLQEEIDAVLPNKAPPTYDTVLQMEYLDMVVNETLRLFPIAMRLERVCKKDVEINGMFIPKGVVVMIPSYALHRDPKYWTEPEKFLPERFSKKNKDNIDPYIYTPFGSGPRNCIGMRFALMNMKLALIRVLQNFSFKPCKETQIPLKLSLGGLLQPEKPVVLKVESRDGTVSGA

## NC(=O)NNC1=Nc2cccc3cccc1c23
[1]
  CC50: > 50 µM (active)

## CCCN1C(=O)COc2ccc(-c3nnc(O)c4ccccc34)cc21
[2]
  EC50: 22.7 µM (active)
[3]
  EC50: > 120 µM (not active)
[4]
  EC50: 30.9 µM (active)

## COC(=O)c1cccc(NC(=S)NCc2ccc(Cl)cc2)c1
Streptokinase A
  EC50: > 150 µM (not active)

## S=C(NCc1ccco1)N1CCN(c2nc(-c3ccc(Cl)cc3)cs2)CC1
[5]
  EC50: 9.38 µM (active)
Streptokinase A
  EC50: 36.4 µM (active)
Streptococcus
  EC50: 32.1 µM (active)

## CCn1nc([N+](=O)[O-])c2c(-c3nc4ccccc4o3)c(N)n(CCCOC)c2c1=O
[2]
  EC50: > 120 µM (not active)
[3]
  EC50: > 120 µM (not active)
[4]
  EC50: > 120 µM (not active)

## O=C(Nc1ccc(N2CCCCC2)cc1)C(Cl)c1ccccc1 (stereo unspecified)
[6]
  EC50: 0.125 µM (active)
H4
  EC50: 12.8 µM (active)

## CSc1cccc(NC(=O)OC2CCCCCCCCCCC2)c1
[5]
  EC50: 4.09 µM (active)
Streptokinase A
  EC50: 2.93 µM (active)
Streptococcus
  EC50: 10.8 µM (active)
Cytochrome P450 1A2
  AC50: 5.01 µM (inconclusive)
Cytochrome P450 3A4
  AC50: 3.16 µM (inconclusive)

## SC1=NC[C@H](CC2CCCCC2)N1CC1CCCCC1
[5]
  EC50: 12.6 µM (active)
Streptokinase A
  EC50: 25.4 µM (active)
Streptococcus
  EC50: 19.6 µM (active)

## S=C(Nc1cc(Cl)cc(Cl)c1)NC1CCN(Cc2ccccc2)CC1
[2]
  EC50: > 120 µM (not active)
[3]
  EC50: > 120 µM (not active)
[4]
  EC50: 11.4 µM (active)
[7]
  AC50: 5.23 µM (active)

## CC(=O)c1cnc(SCC(=O)O)nc1C
[2]
  EC50: > 120 µM (not active)
[3]
  EC50: > 120 µM (not active)
[4]
  EC50: > 120 µM (not active)

## COc1ccc(C(=O)CSc2nc(-c3ccccn3)nc(C)c2Cl)cc1
[5]
  EC50: 7.92 µM (active)
Streptokinase A
  EC50: > 150 µM (not active)
Streptococcus
  EC50: 36.4 µM (active)

## Cc1cccc(NC(=S)/N=C(\N)Nc2nc(C)c3ccc(C)cc3n2)c1
[5]
  EC50: 77.2 µM (active)
Streptokinase A
  EC50: > 150 µM (inconclusive)
[8]
  EC50: 2.12 µM (active)
[9]
  EC50: > 60 µM (not active)
Streptococcus
  EC50: > 150 µM (not active)

## CCCCSc1nc2c(c(=O)n1CC)SC(C)C2 (stereo unspecified)
[2]
  EC50: 15.3 µM (active)
[3]
  EC50: > 60 µM (not active)
[4]
  EC50: > 120 µM (not active)

## CCNC(=O)Nc1ccccc1C(=O)OC
[1]
  CC50: 27.7 µM (active)

## COc1ccccc1OCC(=O)NNC(=S)NC(=O)c1ccco1
[5]
  EC50: 2.81 µM (active)
Streptokinase A
  EC50: > 150 µM (not active)
Streptococcus
  EC50: 41.4 µM (active)

## COc1cccc(N(C(=O)c2snc(C(N)=O)c2N)C(C(=O)NCc2ccccc2)c2ccc(O)cc2)c1 (stereo unspecified)
[1]
  CC50: > 50 µM (active)

## O=C(CC1CCCCC1)c1c(O)c2ccccc2oc1=O
[5]
  EC50: 3.42 µM (active)
Streptokinase A
  EC50: > 150 µM (not active)
Streptococcus
  EC50: 55 µM (active)
[10]
  EC50: 7.06 µM (active)

## Cc1ccc(-c2ccnc3c(Cl)c(C)nn23)cc1
[2]
  EC50: > 120 µM (not active)
[3]
  EC50: > 120 µM (not active)
[4]
  EC50: 13.7 µM (active)

## Cn1nc(-c2ccccc2)c(CSc2cccc(Cl)c2)c1Cl
Streptokinase A
  EC50: 19.8 µM (active)
Streptococcus
  EC50: > 150 µM (not active)

## Fc1ccccc1CNc1cc(Cl)cc(Cl)c1
[5]
  EC50: 9.65 µM (active)
Streptokinase A
  EC50: > 150 µM (not active)
Streptococcus
  EC50: 17.8 µM (active)

## CCn1nc(C)c(CN2CCc3c([nH]c4ccccc34)C2C(C)(C)C)c1C (stereo unspecified)
[1]
  CC50: > 50 µM (active)

## CCOC(=O)c1c(C)[nH]c(C(=O)Cn2c(=O)c3c(ncn3CC)n(Cc3ccccc3)c2=O)c1C
[2]
  EC50: > 120 µM (not active)
[3]
  EC50: > 120 µM (not active)
[4]
  EC50: 17.2 µM (active)

## O=C(Nc1ccc(N2CCOCC2)cc1)c1cc2c(s1)CCCC2
[1]
  CC50: > 50 µM (active)

## COc1ccc([C@H]2Oc3cc(O)cc(O)c3C(=O)C2[C@@H]2C(=O)c3c(O)cc(O)cc3O[C@@H]2c2ccc(OC)cc2)cc1 (stereo partly specified)
[5]
  EC50: 2.34 µM (active)
Streptokinase A
  EC50: 1.7 µM (active)
Streptococcus
  EC50: 2.42 µM (active)
[7]
  AC50: 7.4 µM (active)

## COC(=O)C1=C(C)N(c2cc(C)cc(C)c2)/C(=C/c2ccc(O)cc2)C1=O
[1]
  CC50: 18.4 µM (active)

## CN(C)c1ccc(-c2cc([C@H]3[C@@H]4C=CCC[C@@]4(C)C(=O)N3Cc3ccccc3)ccc2F)cc1
[1]
  CC50: 13.1 µM (active)
[7]
  AC50: 2.28 µM (active)

## N#C/C(=C\c1c[nH]c2ccc(Br)cc12)c1ccccn1
[5]
  EC50: 18.7 µM (active)
Streptokinase A
  EC50: 51.6 µM (active)
Streptococcus
  EC50: > 150 µM (not active)
[7]
  AC50: 2.25 µM (active)

## O=C(NC1CCCCC1)NC1C2CC3CC(C2)CC1C3 (stereo unspecified)
[5]
  EC50: > 150 µM (not active)
Streptokinase A
  EC50: > 150 µM (not active)
Streptococcus
  EC50: > 150 µM (not active)

## CC/N=C1/S/C(=C\c2cn(CC(=O)NCc3ccco3)c3ccccc23)C(=O)N1CC
[2]
  EC50: 11.1 µM (active)
[3]
  EC50: 14.8 µM (active)
[4]
  EC50: 13.9 µM (active)

## CC1=NC(C)=C(C(=O)OCCNC(=O)c2ccccc2O)C(c2ccccc2[N+](=O)[O-])/C1=C(\O)OCC1CCCO1 (stereo unspecified)
[2]
  EC50: 17 µM (active)
[3]
  EC50: > 120 µM (not active)
[4]
  EC50: 78.4 µM (active)
INS1
  AC50: 40.6 µM (active)

## CCOC(=O)C1=C(C)N=c2s/c(=C/c3ccc(OCC(=O)O)cc3)c(=O)n2C1c1ccc(F)cc1 (stereo unspecified)
[1]
  CC50: 39.8 µM (active)

## C/C(=N\NC(=O)C12CCC(C)(C(=O)O1)C2(C)C)c1ccccc1O (stereo unspecified)
[2]
  EC50: 13.1 µM (active)
[3]
  EC50: 13.5 µM (active)
[4]
  EC50: > 120 µM (not active)

## Cc1ccc(/C=c2/sc3n(c2=O)CCCN=3)o1
[6]
  EC50: 0.161 µM (active)
H4
  EC50: 11.8 µM (active)

## C/N=C1\S/C(=C\c2ccc(N3CCOCC3)c(F)c2)C(=O)N1C
[5]
  EC50: 5.33 µM (active)
Streptokinase A
  EC50: > 150 µM (not active)
Streptococcus
  EC50: 12.2 µM (active)
